Measurements from patent US20060034911A1, “New oral immediated release dosage form” (priority 2002, published 2006).

Assays:
[1] = Plasma elimination half-life in man; format: in vivo; details: human, read-out: plasma elimination half-life, t1/2 (converted)

half-life [1]: 35 h
solubility (physchem; 0.1 M HCl, simulated gastric fluid): 11 mg/mL
solubility (physchem; ethanol/water 1:1, aqueous with cosolvent or surfactant or cyclodextrin): 19 mg/mL
solubility (physchem; water): 6.4 mg/mL
SMILES: Br.Cc1ccc(N2CCN(C)CC2)c2c1CC[C@@H](NC(=O)c1ccc(N3CCOCC3)cc1)C2 [(R)-N-[5-methyl-8-(4-methylpiperazin-1-yl)-1,2,3,4-tetrahydro-2-naphthyl]-4-morpholinobenzamide monohydrobromide]
